Data as given in patent US8597904B2, “Pharmaceutical compositions for the treatment of conditions responsive to proteasome inhibition” (priority 2007, dated 2013).
Where two headings read alike, the source gives them in different places.

Experiments:
SK-N-SH cells [1] = assay: CellTiter 96 Aqueous One (MTS) cell proliferation assay; type: cell-based, human
Method: (§1) The CellTiter 96 Aqueous One solution Cell Proliferation Assay (2-(4,5-dimethylthiazol-2-yl)-5-(3-carboxymethoxyphenyl)-2-(4-sulfophenyl)-2H-tetrazolium, inner salt; MTS) (Promega, San Luis Obispo, Calif.) was used to determine the viability of cells treated with GlbA and SylA. Briefly, SK-N-SH and SKOV3 cells were seeded in clear, 96 well plates, as described (Example 11), and cultured for 18-24 hours. Ten μl GlbA or SylA were added at different concentrations (0-100 μM) and incubated for 48 hours. After the experiment, 20 uL of tetrazolium CellTiter 96 Aqueous One Solution Reagent was added to wells, incubated for 75-150 min. at 37° C. The absorbance was measured at 490 nm using a Perkin Elmer HTS7000 Plus bioassay reader.

SKOV3 cells = assay: as above; type: cell-based, human
Method: as §1

SK-N-SH cells [2] = assay: microscopy of treated SK-N-SH cells for membrane blebbing; type: cell-based, human
Rat-1 fibroblasts cells = assay: sulphorhodamine B (SRB) cell viability / proliferation assay; type: cell-based
Method: To then test the effects of syringolin A on proliferation, cells at 0.25-0.5×10^5 cells per ml were seeded in 96-well microtiter plates containing 100 μl of culture medium per well. After 24 hours, syringolin A was added to wells to a final concentration of 0.5 μm to 100 μm. Syringolin was not added to parallel samples of control cells. Cells were incubated for 48 hours, photographed, and the viability of cells (calculated as a percentage of control cell counts) was determined using the sulphorhodamine B (SRB) assay as previously reported (Skehan, et al. 1990. J. Natl. Cancer Inst. 82:1107-1112, which is incorporated herein by reference in its entirety). In brief, cell culture medium was removed from the microtiter plate and adherent cells were fixed with 10% (w/v) trichloracetic acid (TCA) for 30 minutes at room temperature. Following four washes with tap water, 100 μl of SRB (Sigma Chemical Co., St. Louis, Mo.) (0.4 g/100 ml 1% [v/v] glacial acetic acid in water) was added and the plate was then incubated for 30 minutes at room temperature, and rinsed four times with 3% (v/v) glacial acetic acid. […] The absorption at a wavelength of 560 nm was read using an HTS 7000 Plus Bioassay Reader or a Victor 3, 1420 Multilabel Counter (PerkinElmer, Inc. Boston, Mass.). […]

[3] = system: poly (ADP-ribose) polymerase (PARP); assay: Western blot of PARP cleavage in SKOV3 cells; type: cell-based, human; details: SKOV3, 20 μM, 24 and 48 hours
Method: The induction of an apoptotic response in cancer cells by the addition of syringolin A was verified by monitoring the cleavage of poly (ADP-ribose) polymerase (PARP), a common response during apoptosis. SK-N-SH cells were cultured in the presence or absence of 20 μM syringolin A for 0, 24 and 48 hours, and cell lysates were then generated as described in Example 4 and probed for the presence of PARP by Western blotting using rabbit polyclonal anti-PARP (#9542) (diluted 1:1000) and the HRP-linked anti-rabbit secondary antibody described in Example 4. The results were representative of four independent experiments. […] The treatment of cells for 48 hours further increased the levels of cleaved PARP, whereas noncleaved PARP disappeared. In a similar manner, syringolin A induced PARP cleavage in SKOV3 cells, but noncleaved PARP was still detected 48 hours after treatment (FIG. 5B).

SK-N-SH cells [4] = assay: annexin V assay by flow cytometry; type: cell-based, human; details: 25 μM, 48 hours
Method: SK-N-SH cells at a concentration of 1.0×10^5 cells per ml were seeded in 12-well plates containing 1 ml of culture medium per well. After 24 hours, 10 μl of syringolin A (25 μM final concentration) or an equal volume of sterile water (control) was added per well. Cells were incubated for 48 hours, trypsinized, washed twice in phosphate-buffered saline (PBS) and were counted; 1-2×10^5 cells suspended in 0.1 ml of 1× assay buffer per vial according to the manufacturer's instructions (BD Biosciences, Palo Alto, Calif.). Cells were stained with annexin V-FITC (5 μl) for 15 minutes in the dark, at room temperature. Assay buffer (0.4 ml) was added, and 5000 cells were analyzed using a FACScan flow cytometer (Becton Dickinson, San Jose, Calif.). The […] program was used for data analysis.

SK-N-SH cells [5] = details: values from previous studies with SylA (Coleman et al. 2006); cited from earlier work
SK-N-SH cells [6] = details: neuroblastoma (NB) cells, Coleman et al. 2006; cited from earlier work

With `CCCCCCC/C=C/C=C/C(=O)N[C@H](C(=O)N[C@H]1C[C@@H](O)CCNC(=O)/C=C/[C@H](C)NC1=O)[C@@H](C)O` [glidobactin A] the cell morphology (SK-N-SH cells [1]; 48 hours) was “severe morphological changes”, the EC50 (SK-N-SH cells [1]; Homo sapiens, 48 hours, MTS) was about 0.14 µM and the “effectiveness of GlbA relative to SylA” value (SK-N-SH cells [1]; ratio of EC50) was “about 143 fold”. For the same compound, the EC50 (SKOV3 cells; Homo sapiens, SK-OV-3, 48 hours, MTS) was about 0.8 µM, the cell morphology (SKOV3 cells; SKOV3, 48 hours) was “severe morphological changes” and the “effectiveness of GlbA relative to SylA” value (SKOV3 cells; SKOV3, ratio of EC50) was about 25 fold. The “membrane blebbing / apoptotic effects by microscopy” value (SK-N-SH cells [2]) was “presence of membrane blebbing”.
In the case of `CC(C)[C@H](NC(=O)N[C@H](C(=O)N[C@H]1/C=C/CCNC(=O)/C=C/[C@H](C(C)C)NC1=O)C(C)C)C(=O)O` [syringolin A], the cell morphology (Rat-1 fibroblasts cells; Rat-1, 25 μM, no detachment or floating cells) is reported as “affected the cell morphology”, the cell proliferation rate (Rat-1 fibroblasts cells; Rat-1, dose-dependent) is reported as “reduced the cell proliferation rate” and the PARP cleavage [3] is reported as “induces apoptosis-associated PARP cleavage”. The “annexin V binding” value (SK-N-SH cells [4]) was “strongly bound annexin V”, the EC50 (SK-N-SH cells [5]) was about 20 µM and the “reaction with Annexin V” value (SK-N-SH cells [6]) was “strongly react with Annexin V”.
